Assay results: ChEMBL document CHEMBL5226293, “Biologically Significant and Recently Isolated Alkaloids from Endophytic Fungi” (2021)
In brackets after ≈: the same amount, converted by molar mass.

Assays:
[1] = test system: Mycolicibacterium smegmatis; assay: Antimycobacterial activity against Mycobacterium smegmatis assessed as growth inhibition incubated for 7 days by microplate alamar blue bioassay; type: functional; conditions: 168 h, time 7 day
[2] = test system: Mycobacterium tuberculosis; assay: Antimycobacterial activity against Mycobacterium tuberculosis assessed as growth inhibition incubated for 7 days by microplate alamar blue bioassay; type: functional; conditions: 168 h, time 7 day

## O=C(/C=C/C=C/c1ccc2c(c1)OCO2)N1CCCCC1 [PIPERINE]
[1]
  MIC: 1.74 µg/mL (≈ 6.1 µM)
[2]
  MIC: 2.62 µg/mL (≈ 9.18 µM)
